Data on six compounds can be found in US20160095865A1, “APPLICATION OF ENROFLOXACIN SALT IN PREPARATION OF ORAL PREPARATION FOR PIGS” (GUANGZHOU INSIGHTER BIOTECHNOLOGY CO., LTD., priority 2013, published 2016).

Counter-ions that a name gives are not always drawn.

In data set [1] the test system is pathogenic escherichia coli SGD strain. As to the kind of experiment: Protection against escherichia coli artificial (challenge) infection in weaned piglets (Embodiment 9). The data set is classed as in vivo, pigs. Particulars: for Death rate: challenged control 60; for Incidence rate (%, calculated by diarrhea): challenged control 100. As to the method: The 33-day-old pigs were intramuscularly injected with pathogenic escherichia coli, the diarrhea and deaths of the pigs were observed, continuous observation was performed for one week, the onset and deaths were subjected to statistics, and the protection effects of the enrofloxacin in different forms against the pathogenic escherichia coli in the artificial infection were compared. Pure feed which was not added with the enrofloxacin in any form was taken as a control group, wherein one portion of pigs in the control group were intramuscularly injected with the pathogenic escherichia coli and was taken as the control group without administration but with challenge (the fifth group), and the remainder were not intramuscularly injected with the pathogenic escherichia coli and was taken as the control group without administration and without challenge (the sixth group).

The subject of the next data set is sensitive bacteria. The conditions noted are these: overwhelming majority of strains of sensitive bacteria; cited from earlier work.
In data set [2] the test system is duroc-landrace-yorkshire hybrid pigs. Put plainly: Influence of enrofloxacin base, sodium salt and hydrochloride on palatability of pig feed (Embodiment 2). The data set is classed as in vivo. Particulars: compared with blank control group. How it is done: Enrofloxacin base, enrofloxacin sodium and enrofloxacin hydrochloride were respectively added in feed in each group. All the test pigs were synchronously fasted for 12 h before testing. The test pigs in each group were respectively subjected to free feed intake of feed containing enrofloxacin in different forms after the 12 h fast. […] Feed consumption of different test groups was subjected to statistics and the influence of different forms of the enrofloxacin added in the feed on the feed intake of the pigs was evaluated. The pure feed which was not added with the enrofloxacin or the salt thereof was taken as control.

Data set [3] can be described thus: Pharmacokinetic research in pigs, plasma concentration by HPLC (Embodiment 8). The data set is classed as in vivo. Particulars: piglets. How it is done: Jugular venous blood collection was performed at 30 min, 1 h, 2 h, 4 h, 8 h, 12 h and 24 h after administration. Plasma was separated, the concentration of the enrofloxacin in the plasma in the different test pigs after administration was determined by high-performance liquid chromatography respectively, and whether the difference in the concentration of the enrofloxacin in the plasma in each test group after administration was significant or not and whether the elimination rule of the enrofloxacin in blood was consistent or not was subjected to statistical analysis.

Setting [4] is: 100 ppm equivalent fed twice daily through a gastric tube according to feed intake, challenge 2.0 ×10^7 CFU/pig.
[5] abbreviates: 100 ppm in feed, challenge 2.0 ×10^7 CFU/pig i.m., one week.

For the compound `CCN1CCN(c2cc3c(cc2F)c(=O)c(C(=O)O)cn3C2CC2)CC1` [enrofloxacin base, enrofloxacin], the Death rate in data set [1] (setting [4]) came out at 0%. The “Incidence rate (%, calculated by diarrhea)” value in data set [1] (setting [4]) is recorded as 0%. In addition, the MIC entry in the data set with sensitive bacteria is “lower than 1 ug/ml”. Also, the entries for the “Decline in feed intake” value in data set [2] (5 ppm in feed), in data set [2] (25 ppm in feed) and in data set [2] (100 ppm in feed) were 47.2%, 74.2% and 93.3%, respectively.
For `CCN1CCN(c2cc3c(cc2F)c(=O)c(C(=O)[O-])cn3C2CC2)CC1.CCN1CCN(c2cc3c(cc2F)c(=O)c(C(=O)[O-])cn3C2CC2)CC1.[Cu+2]` [enrofloxacin copper], in data set [1] (setting [5]), the Death rate was 0%. Also, in data set [1] (setting [5]), the “Incidence rate (%, calculated by diarrhea)” value is recorded as 0%. Also, the “Plasma concentration (total of enrofloxacin and ciprofloxacin)” value is 1.417 ± 0.169^A ug/ml in data set [3] (30 min after 10 mg/kg body weight by gastric tube); 2.121 ± 0.198^B ug/ml in data set [3] (1 h after 10 mg/kg body weight by gastric tube); 5.187 ± 0.558^C ug/ml in data set [3] (2 h after 10 mg/kg body weight by gastric tube); 5.465 ± 0.529^D ug/ml in data set [3] (4 h after 10 mg/kg body weight by gastric tube); 2.986 ± 0.234^E ug/ml in data set [3] (8 h after 10 mg/kg body weight by gastric tube); 1.785 ± 0.215^F ug/ml in data set [3] (12 h after 10 mg/kg body weight by gastric tube). For the same compound, the “Plasma concentration (total of enrofloxacin and ciprofloxacin)” value in data set [3] (24 h after 10 mg/kg body weight by gastric tube) is 0.294 ± 0.044^G ug/ml.
As for `CCN1CCN(c2cc3c(cc2F)c(=O)c(C(=O)O)cn3C2CC2)CC1` [enrofloxacin hydrochloride], the “Decline in feed intake” value is recorded as 49.5% in data set [2] (5 ppm in feed, hydrochloride); 73.4% in data set [2] (25 ppm in feed, hydrochloride); 93.7% in data set [2] (100 ppm in feed, hydrochloride).
On to `CCN1CCN(c2cc3c(cc2F)c(=O)c(C(=O)[O-])cn3C2CC2)CC1.[Ag+]` [enrofloxacin silver], for which, in data set [1] (setting [5]), the Death rate worked out at 0% and the “Incidence rate (%, calculated by diarrhea)” value was 0%.
In the case of `CCN1CCN(c2cc3c(cc2F)c(=O)c(C(=O)O)cn3C2CC2)CC1` [enrofloxacin sodium], the “Decline in feed intake” value in data set [2] (5 ppm in feed) was 50.8%; in data set [2] (25 ppm in feed) it was 73.1%; in data set [2] (100 ppm in feed) it was 94.1%.
Turning to `CCN1CCN(c2cc3c(cc2F)c(=O)c(C(=O)[O-])cn3C2CC2)CC1.CCN1CCN(c2cc3c(cc2F)c(=O)c(C(=O)[O-])cn3C2CC2)CC1.[Zn+2]` [enrofloxacin zinc], in data set [1] (setting [5]), the Death rate was 0% and the “Incidence rate (%, calculated by diarrhea)” value was 0%.
